How the values were obtained:
Type in all cases: toxicity, cell-based
[1] = tested on: Fibroblast; experiment: Incucyte cell viability with human fibroblast; conditions: 10 µM, compound concentration 10 uM
[2] = tested on: HEK-293T; experiment: Incucyte cell viability with HEK293T; conditions: human, 10 µM, compound concentration 10 uM
[3] = tested on: U2OS; experiment: Incucyte cell viability with U2OS; conditions: human, 10 µM, compound concentration 10 uM
Also: unitless GR value; below 1 slowed growth and below 0 cell loss.

| Structure (SMILES) | Growth Rate ([1]; 12 h, replicate number 2) | Growth Rate ([1]; 18 h, replicate number 2) | Growth Rate ([1]; 24 h, replicate number 2) | Growth Rate ([2]; 0 h, replicate number 2) | Growth Rate ([2]; 6 h, replicate number 1) | Growth Rate ([2]; 18 h, replicate number 1) | Growth Rate ([3]; 6 h, replicate number 1) | Growth Rate ([3]; 12 h, replicate number 1) | Growth Rate ([3]; 18 h, replicate number 2) | Growth Rate ([1]; 6 h, replicate number 1) | Growth Rate ([1]; 12 h, replicate number 1) | Growth Rate ([1]; 18 h, replicate number 1) | Growth Rate ([1]; 24 h, replicate number 1) | Growth Rate ([2]; 0 h, replicate number 1) | Growth Rate ([3]; 6 h, replicate number 2) | Growth Rate ([3]; 12 h, replicate number 2) | Growth Rate ([1]; 0 h, replicate number 2) | Growth Rate ([2]; 24 h, replicate number 2) | Growth Rate ([3]; 18 h, replicate number 1) | Growth Rate ([3]; 24 h, replicate number 1) | also measured |
| --- | --- | --- | --- | --- | --- | --- | --- | --- | --- | --- | --- | --- | --- | --- | --- | --- | --- | --- | --- | --- | --- |
| CC(=O)N1CCC(c2ccc(C(=O)NC3=NCCN3)cc2C(F)(F)F)CC1 [BI 0054] | 0.87 | 0.82 | 0.88 | -0.32 | 0.29 | 0.87 | 0.82 | 0.97 | 0.92 | – | – | – | – | – | – | – | – | – | – | – | Growth Rate ([1]; 0 h, replicate number 1): -1; Growth Rate ([2]; 12 h, replicate number 1): 0.6; Growth Rate ([2]; 24 h, replicate number 1): 0.81; Growth Rate ([3]; 0 h, replicate number 1): 0.95 |
| O=C(O)CCC/C=C\C[C@@H]1[C@@H](/C=C/[C@@H](O)COc2cccc(C(F)(F)F)c2)[C@H](O)C[C@@H]1O [FLUPROSTENOL] | 0.09 | 0.18 | 0.44 | 0.68 | – | – | 0.86 | – | 0.9 | 0.15 | 0.5 | 0.89 | 0.8 | -0.11 | 0.95 | 0.91 | – | – | – | – | Growth Rate ([1]; 6 h, replicate number 2): -0.58; Growth Rate ([3]; 0 h, replicate number 1): 0.61; Growth Rate ([3]; 24 h, replicate number 2): 0.91 |
| Cn1nccc1-c1ccc(Sc2cccc(C3(C(N)=O)CCOCC3)c2)cc1 [PF-4191834] | 0.52 | 0.45 | 0.46 | – | -0.02 | 0.29 | 0.7 | – | 0.88 | -0.12 | 0 | -0.01 | 0.22 | 0.41 | 0.8 | 0.79 | -0.66 | 0.15 | 0.94 | 0.76 | Growth Rate ([1]; 6 h, replicate number 2): 0.25; Growth Rate ([2]; 6 h, replicate number 2): -0.28; Growth Rate ([2]; 12 h, replicate number 1): 0.37; Growth Rate ([2]; 12 h, replicate number 2): -0.18; Growth Rate ([2]; 18 h, replicate number 2): 0; Growth Rate ([2]; 24 h, replicate number 1): 0.31; Growth Rate ([3]; 24 h, replicate number 2): 0.93 |
| CN(C)CCCn1cc(C2=C(c3c[nH]c4ccccc34)C(=O)NC2=O)c2ccccc21 [GF-109203] | – | 0.65 | 0.41 | -0.46 | – | – | – | – | – | -0.72 | -1 | – | – | -0.26 | – | – | -0.49 | 0.98 | 0.94 | 0.8 | Growth Rate ([2]; 12 h, replicate number 2): 0.81; Growth Rate ([2]; 18 h, replicate number 2): 0.99; Growth Rate ([3]; 0 h, replicate number 1): -0.01; Growth Rate ([3]; 24 h, replicate number 2): 0.82 |
| Cc1sc(C(=O)c2cncnc2N[C@@H]2C[C@H](COS(N)(=O)=O)[C@@H](O)C2)cc1[C@@H]1NCCc2ccc(Cl)cc21 | 0.8 | – | – | -0.97 | – | 0.9 | 0.59 | 1 | 0.17 | 0.42 | 0.55 | 0.44 | 0.47 | -0.45 | -0.29 | -0.03 | -0.16 | 0.88 | 0.96 | 0.66 | Growth Rate ([2]; 24 h, replicate number 1): 0.74; Growth Rate ([3]; 0 h, replicate number 2): 0.29; Growth Rate ([3]; 24 h, replicate number 2): 0.3 |
| COc1ccc(COc2ccc(Cc3cnc(N)nc3N)cc2OC)cc1 [GW632580X] | 0.22 | 0.48 | 0.57 | – | 0.7 | 0.93 | 0.52 | 0.7 | – | 0.69 | 0.73 | 0.86 | 0.78 | – | – | – | -0.61 | 0.92 | 0.63 | 0.89 | Growth Rate ([1]; 6 h, replicate number 2): 0.45; Growth Rate ([2]; 12 h, replicate number 1): 0.83; Growth Rate ([2]; 12 h, replicate number 2): 0.92; Growth Rate ([2]; 18 h, replicate number 2): 0.87; Growth Rate ([2]; 24 h, replicate number 1): 0.91; Growth Rate ([3]; 0 h, replicate number 2): 0.63 |
| Cc1cn(CCN2CCN(c3ccccc3-c3cc(C#N)cc(C(=O)NCCCN4CCCC4)c3)CC2)c2ccccc12 | -0.87 | -0.81 | -0.71 | -1 | -0.62 | -0.45 | -0.93 | -0.85 | -0.77 | -0.88 | -0.74 | -0.68 | -0.66 | – | -0.89 | -0.84 | – | -0.39 | -0.75 | -0.72 | Growth Rate ([1]; 6 h, replicate number 2): -0.91; Growth Rate ([2]; 6 h, replicate number 2): -0.59; Growth Rate ([2]; 12 h, replicate number 1): -0.46; Growth Rate ([2]; 12 h, replicate number 2): -0.49; Growth Rate ([2]; 18 h, replicate number 2): -0.47; Growth Rate ([2]; 24 h, replicate number 1): -0.38; Growth Rate ([3]; 0 h, replicate number 1): -1; Growth Rate ([3]; 0 h, replicate number 2): -0.98; Growth Rate ([3]; 24 h, replicate number 2): -0.74 |
| CC(=O)Oc1ccc2c(c1)[C@@]1(C)CCC[C@](C)(C(=O)OC(=O)[C@@]3(C)CCC[C@]4(C)c5cc(OC(C)=O)ccc5CC[C@@H]34)[C@@H]1CC2 [ACETYL PODOCARPIC ACID ANHYDRIDE] | 0.33 | 0.61 | 0.62 | 0.84 | – | 0.8 | 0.6 | 0.57 | 0.96 | – | – | 0.83 | 0.96 | 0.44 | 0.92 | 0.76 | – | 0.57 | 0.73 | 0.84 | Growth Rate ([1]; 0 h, replicate number 1): 0.14; Growth Rate ([1]; 6 h, replicate number 2): 0.4; Growth Rate ([2]; 6 h, replicate number 2): 0.34; Growth Rate ([2]; 12 h, replicate number 2): 0.36; Growth Rate ([2]; 18 h, replicate number 2): 0.46; Growth Rate ([3]; 0 h, replicate number 1): -0.55; Growth Rate ([3]; 0 h, replicate number 2): 0.76 |
| CN(C)c1ncc2cc(-c3ccc(-c4ncccc4F)cc3Cl)c(=O)n(C[C@H]3OC[C@H](N)CO3)c2n1 | – | – | – | – | – | – | – | – | 0.99 | – | – | – | – | -1 | – | 0.96 | -0.89 | – | – | – | Growth Rate ([1]; 0 h, replicate number 1): -0.2 |
| CN[C@@H](C)C(=O)N[C@H](C(=O)N1CCC[C@H]1C(=O)Nc1snnc1-c1ccccc1)C1CCCCC1 [GDC-0152] | – | – | – | – | 0.13 | -0.27 | – | – | 0.98 | -0.88 | – | 0.81 | – | 0.81 | – | 0.89 | -0.71 | 0.07 | – | – | Growth Rate ([1]; 0 h, replicate number 1): -0.28; Growth Rate ([2]; 6 h, replicate number 2): -0.14; Growth Rate ([2]; 12 h, replicate number 1): -0.36; Growth Rate ([2]; 12 h, replicate number 2): 0.05; Growth Rate ([2]; 18 h, replicate number 2): 0.07; Growth Rate ([2]; 24 h, replicate number 1): -0.26; Growth Rate ([3]; 0 h, replicate number 1): 0.23; Growth Rate ([3]; 24 h, replicate number 2): 0.98 |
| COc1cc(OC)c(NC(=O)Nc2cc(C)on2)cc1Cl | – | – | – | 0.7 | – | – | – | – | 0.82 | 0.03 | -1 | – | – | 0.72 | 0.98 | – | -0.96 | – | 0.96 | – | – |
| CC(=O)c1c(C)c2cnc(Nc3ccc(N4CCN(CCOCCOCCOCCNC(=O)COc5cccc6c5C(=O)N(C5CCC(=O)NC5=O)C6=O)CC4)cn3)nc2n(C2CCCC2)c1=O (centres undefined) | 0.92 | – | 0.89 | – | – | – | – | 0.99 | – | – | – | – | – | 0.95 | – | 0.93 | 0.18 | – | – | – | – |
| O=C(Nc1ccc(-n2nc(C(F)(F)F)cc2C(F)(F)F)cc1)c1ccncc1F | 0.14 | 0.72 | 0.69 | – | -0.04 | 0.25 | -0.16 | 0.54 | 0.66 | 0.37 | -1 | – | 0.81 | – | 0.41 | 0.63 | – | 0.46 | 0.8 | 0.69 | Growth Rate ([1]; 0 h, replicate number 1): -0.09; Growth Rate ([1]; 6 h, replicate number 2): -1; Growth Rate ([2]; 6 h, replicate number 2): -0.25; Growth Rate ([2]; 12 h, replicate number 1): 0.33; Growth Rate ([2]; 12 h, replicate number 2): 0.24; Growth Rate ([2]; 18 h, replicate number 2): 0.42; Growth Rate ([2]; 24 h, replicate number 1): 0.31; Growth Rate ([3]; 0 h, replicate number 2): -1; Growth Rate ([3]; 24 h, replicate number 2): 0.77 |
| CN1CCC(C#N)(NC(=O)[C@@H](NC(=O)N2CCOCC2)C(C)(C)C)CC1 | – | 0.75 | – | 0.91 | 0.8 | – | – | 0.98 | 1 | 0.5 | – | 0.98 | 0.99 | 0.92 | 0.92 | – | -0.99 | – | 0.98 | 0.92 | Growth Rate ([3]; 0 h, replicate number 2): 0.61 |

From ChEMBL document CHEMBL5303304, “EUbOPEN Chemogenomics Library - IncuCyte” (2023)
